The source of these data is patent US10836758B2, “Acyl sulfonamide NaV1.7 inhibitors” (BRISTOL-MYERS SQUIBB COMPANY, priority 2016, dated 2020).

SMILES strings stand for the structures.

This assay deals with NaV1.7 (Homo sapiens (Human), UniProt Q15858). Briefly: NaV1.7 IC50 of Table 1 (IonWorks Barracuda population patch clamp or ligand binding assay; table does not say which). In kind it is cell-based. As to conditions: HEK 293 cells expressing NaV1.7. How it is done:
Ion Works Barracuda population patch clamp (PPC). PPC measurements were performed using an IonWorks Barracuda instrument (Molecular Devices Corporation, Union City, Calif.) using either PatchPlate™ PPC substrates (Molecular Devices Corporation) with 64 apertures per well. The ability to average currents from 64 recordings from each well greatly improves data consistency and recording success rates in the measurement of NaV1.7 mediated ionic currents. Calculated leak current was digitally subtracted from the total cell NaV1.7 current for each sample point acquired.
NaV1.7 currents were elicited by a voltage clamp protocol designed to bias the NaV1.7 channels to their inactivated state as follows. […] This was followed by a relatively brief hyperpolarization to −100 mv for 300 ms, then a 20 msec test pulse to −20 mV to elicit the NaV1.7 current used to measure the pharmacology of all test compounds. Compounds were incubated for 600 sec between the pre- and post-compound reads. […] The same solutions were used to record NaV1.5 currents, with the following voltage clamp protocol. NaV1.5 currents were elicited by a voltage clamp protocol designed to bias the NaV1.5 channels to their inactivated state as follows. […] This was followed by a relatively brief hyperpolarization to −100 mv for 30 ms, then a 20 msec test pulse to −10 mV to elicit the NaV1.5 current used to measure the pharmacology of all test compounds.
HEK 293 cells expressing NaV1.7 and NaV1.5 channels, were used (Essen Biosciences, Ann Arbor, Mich.). […] Cells were grown to 70% to 90% confluence in a flask and removed from the incubator (37° C., 5% CO2) 1 to 3 days after plating. Growth medium was aspirated from the culture flasks. […] Next a total of 2 mL TrypLE (Gibco) solution was added, and the flasks containing cells were sat for 3 min at RT, after which, the cells became visibly rounded and were easily dislodged from the bottom of the flask with a few brief taps on a solid surface. A total of 8 mL of media was added to the flask to inactivate the TrypLE, and the mixture was centrifuged at 910 rpm for 4 min. The cell supernatant was decanted, and the cell pellets were resuspended in 5-6 mL of external solution followed by gentle triturations using a 10 ml pipette, and transferred to a 15 ml conical tube and immediately brought to the IW Barracuda instrument.
Peak membrane currents were analyzed with IW Barracuda software and exported to Excel for further analysis. Concentration response curve fitting was performed with BMS in-house software. IC50 values were obtained by fits of the Hill equation to the average percent inhibition data plotted versus compound concentration. […] Results are reported in Table 1 (NaV1.7 Barra IC50 in nM and NaV1.5 Barra IC50 in nM).
hNaV1.7 binding affinities were determined with a filtration binding assay using purified membranes from HEK293 cells stably expressing hNaV1.7. HEK293 cells from a 10-stack cell culture flask (approximately 10^10 cells) were dissociated, frozen, and stored at −80° C. To prepare membranes, the frozen cell pellet was thawed and suspended in 6 ml hypotonic lysis buffer (50 mM HEPES, 0.1% mammalian protease inhibitor cocktail). 1 ml of resuspended cells was added to an additional 6 ml of lysis buffer and homogenized with 30 strokes of a tight pestle in a glass homogenizer. Homogenate was centrifuged at 1000×g for 10 minutes at 4° C. and the resulting supernatant was further centrifuged at 38,500×g for 60 minutes at 4° C. The resulting pellet was resuspended in binding buffer (50 mM HEPES, 130 mM NaCl, 5.4 mM KCl, 0.8 mM MgCl2, 5 mM glucose, pH 7.4) and needle homogenized with a 25 gauge needle. Protein concentration was determined with a BCA protein assay. Purified membranes were aliquoted, flash frozen in an ethyl alcohol dry ice bath, and stored at −80° C.
In general terms: The patch-clamp technique gives a direct electrical read-out from membranes.

Chain of NaV1.7 (Q15858 whole entry): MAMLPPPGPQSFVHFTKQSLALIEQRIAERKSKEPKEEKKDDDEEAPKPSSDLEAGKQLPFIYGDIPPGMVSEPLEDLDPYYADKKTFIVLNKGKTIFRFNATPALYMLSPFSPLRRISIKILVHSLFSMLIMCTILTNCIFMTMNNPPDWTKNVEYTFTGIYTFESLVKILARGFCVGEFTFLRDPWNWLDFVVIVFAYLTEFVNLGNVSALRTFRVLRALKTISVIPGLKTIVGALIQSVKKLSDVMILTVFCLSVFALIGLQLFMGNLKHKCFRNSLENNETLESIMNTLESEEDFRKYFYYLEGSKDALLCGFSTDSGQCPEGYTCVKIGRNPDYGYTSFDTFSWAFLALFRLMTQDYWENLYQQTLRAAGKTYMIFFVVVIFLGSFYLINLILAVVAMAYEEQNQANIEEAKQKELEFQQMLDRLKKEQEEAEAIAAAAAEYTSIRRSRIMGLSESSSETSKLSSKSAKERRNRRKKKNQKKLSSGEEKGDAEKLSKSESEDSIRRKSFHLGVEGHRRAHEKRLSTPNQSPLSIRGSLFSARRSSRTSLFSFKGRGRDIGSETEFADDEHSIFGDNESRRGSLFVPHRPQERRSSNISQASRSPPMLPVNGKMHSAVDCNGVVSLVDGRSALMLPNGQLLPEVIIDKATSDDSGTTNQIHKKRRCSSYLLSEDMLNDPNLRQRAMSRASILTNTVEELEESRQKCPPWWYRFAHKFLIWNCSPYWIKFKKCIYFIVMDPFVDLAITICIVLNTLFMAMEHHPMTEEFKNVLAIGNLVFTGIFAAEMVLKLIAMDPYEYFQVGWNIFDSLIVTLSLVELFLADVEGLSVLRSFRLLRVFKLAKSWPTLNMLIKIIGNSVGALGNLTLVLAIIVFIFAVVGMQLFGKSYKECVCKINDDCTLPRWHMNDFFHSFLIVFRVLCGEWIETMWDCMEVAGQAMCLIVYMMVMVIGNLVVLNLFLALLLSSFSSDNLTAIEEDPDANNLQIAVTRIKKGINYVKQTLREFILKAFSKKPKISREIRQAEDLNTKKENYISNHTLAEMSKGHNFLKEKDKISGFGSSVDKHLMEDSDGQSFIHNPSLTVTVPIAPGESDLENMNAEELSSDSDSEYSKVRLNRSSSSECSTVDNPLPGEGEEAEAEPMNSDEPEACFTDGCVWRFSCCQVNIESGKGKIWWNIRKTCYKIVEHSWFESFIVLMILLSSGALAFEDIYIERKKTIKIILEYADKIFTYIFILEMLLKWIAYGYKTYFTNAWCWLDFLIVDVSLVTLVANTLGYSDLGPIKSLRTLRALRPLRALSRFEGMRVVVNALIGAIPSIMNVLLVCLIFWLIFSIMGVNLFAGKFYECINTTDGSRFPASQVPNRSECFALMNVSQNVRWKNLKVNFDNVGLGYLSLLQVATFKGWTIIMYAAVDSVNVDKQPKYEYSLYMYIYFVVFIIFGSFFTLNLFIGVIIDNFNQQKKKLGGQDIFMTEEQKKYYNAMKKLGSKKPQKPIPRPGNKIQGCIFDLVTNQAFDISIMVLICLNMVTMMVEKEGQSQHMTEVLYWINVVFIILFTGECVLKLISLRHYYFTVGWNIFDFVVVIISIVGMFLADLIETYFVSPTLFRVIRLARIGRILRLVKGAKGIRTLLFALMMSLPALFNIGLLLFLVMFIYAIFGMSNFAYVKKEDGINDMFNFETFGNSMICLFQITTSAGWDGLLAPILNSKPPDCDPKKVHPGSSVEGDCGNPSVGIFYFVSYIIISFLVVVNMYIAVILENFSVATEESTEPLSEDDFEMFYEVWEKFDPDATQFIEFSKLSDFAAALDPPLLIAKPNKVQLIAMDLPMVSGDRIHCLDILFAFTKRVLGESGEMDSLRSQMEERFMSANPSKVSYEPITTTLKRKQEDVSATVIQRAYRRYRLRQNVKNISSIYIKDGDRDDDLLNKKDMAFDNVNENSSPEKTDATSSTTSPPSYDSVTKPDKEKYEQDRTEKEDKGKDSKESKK

The term IC50 denotes the point on the concentration scale where inhibition reaches its midpoint. Higher therefore signals weaker potency in that assay. `CN1CCC(CCNc2cc(F)c(S(=O)(=O)Nc3nccs3)cc2Cl)CC1` [Example 5, 5-Chloro-2-fluoro-4-((2-(1-methylpiperidin-4-yl)ethyl)amino)-N-(thiazol-2-yl)benzenesulfonamide] came in with an IC50 of 70 nM. This counts as double-digit nanomolar.
With `NC1(CCNc2cc(F)c(S(=O)(=O)Nc3nccs3)cc2Cl)CCCCC1` [Example 29, 4-((2-(1-Aminocyclohexyl)ethyl)amino)-5-chloro-2-fluoro-N-(thiazol-2-yl)benzenesulfonamide] the figure was 74 nM; with `O=S(=O)(Nc1nccs1)c1cc(Cl)c(NCC2CCC(N3CCC3)CC2)cc1F` (centres unmarked) [Example 25, 4-(((4-(Azetidin-1-yl)cyclohexyl)methyl)amino)-5-chloro-2-fluoro-N-(thiazol-2-yl)benzenesulfonamide], 50 nM.
With `O=S(=O)(Nc1nccs1)c1cc(Cl)c(NCCC2CCNC2)cc1F` (centres unmarked) [Example 13, 5-Chloro-2-fluoro-4-((2-(pyrrolidin-3-yl)ethyl)amino)-N-(thiazol-2-yl)benzenesulfonamide] the figure was 17 nM; with `O=S(=O)(Nc1nccs1)c1cc(Cl)c(NCCC2CCCCN2O)cc1F` (centres unmarked) [Example 75, 5-chloro-2-fluoro-4-((2-(1-hydroxypiperidin-2-yl)ethyl)amino)-N-(thiazol-2-yl)benzenesulfonamide], 41 nM; with `CN1CCN(C2CCC(CNc3cc(F)c(S(=O)(=O)Nc4nccs4)cc3Cl)CC2)CC1` (centres unmarked) [Example 27, 5-Chloro-2-fluoro-4-(((4-(4-methylpiperazin-1-yl)cyclohexyl)methyl)amino)-N-(thiazol-2-yl)benzenesulfonamide], 40 nM.
`NC1CCC(COc2cc(F)c(S(=O)(=O)Nc3ncns3)cc2F)(Cc2ccc(Cl)c(F)c2)CC1` (single isomer, unassigned) [Example 61, 4-((4-amino-1-(4-chloro-3-fluorobenzyl)cyclohexyl)methoxy)-2,5-difluoro-N-(1,2,4-thiadiazol-5-yl)benzenesulfonamide]: the IC50 was 52 nM.
In turn, `O=S(=O)(Nc1ncns1)c1cc(Cl)c(OCCC2(c3ccc(Cl)c(F)c3)CCNCC2)cc1F` [Example 47, 5-Chloro-4-(2-(4-(4-chloro-3-fluorophenyl)piperidin-4-yl)ethoxy)-2-fluoro-N-(1,2,4-thiadiazol-5-yl)benzenesulfonamide] had a 50% inhibitory concentration (IC50) of 33 nM.
With `O=S(=O)(Nc1ncns1)c1cc(F)c(OCC2(Cc3ccc(Cl)c(F)c3)CCC(O)CC2)cc1F` (centres unmarked) [Example 64, 4-((1-(4-chloro-3-fluorobenzyl)-4-hydroxycyclohexyl)methoxy)-2,5-difluoro-N-(1,2,4-thiadiazol-5-yl)benzenesulfonamide], the IC50 came out at 285 nM.
Next, `O=S(=O)(Nc1nccs1)c1cc(Cl)c(N2CCCC(C3CCNCC3)C2)cc1F` (centres unmarked) [Example 66, 4-([3,4′-bipiperidin]-1-yl)-5-chloro-2-fluoro-N-(thiazol-2-yl)benzenesulfonamide]: 291 nM; `O=S(=O)(Nc1ncns1)c1cc(F)c(OCCC2(c3ccccc3)CCC(O)CC2)cc1F` (centres unmarked) [Example 48, 2,5-Difluoro-4-(2-(4-hydroxy-1-phenylcyclohexyl)ethoxy)-N-(1,2,4-thiadiazol-5-yl)benzenesulfonamide]: 117 nM.
With `N[C@H]1CC[C@@H](CNc2cc(F)c(S(=O)(=O)Nc3ncns3)cc2Cl)CC1` [Example 19, 4-((((1s,4s)-4-Aminocyclohexyl)methyl)amino)-5-chloro-2-fluoro-N-(1,2,4-thiadiazol-5-yl)benzenesulfonamide] the figure was 16 nM; with `CC1(CCOc2cc(F)c(S(=O)(=O)Nc3ncns3)cc2F)CCC(N)CC1` (single isomer, unassigned) [Example 56, 4-(2-((1s,4s)-4-Amino-1-methylcyclohexyl)ethoxy)-2,5-difluoro-N-(1,2,4-thiadiazol-5-yl)benzenesulfonamide], 78 nM.
In turn, `NC1CCCC1CNc1cc(F)c(S(=O)(=O)Nc2nccs2)cc1Cl` (centres unmarked) [Example 31, 4-(((2-Aminocyclopentyl)methyl)amino)-5-chloro-2-fluoro-N-(thiazol-2-yl)benzenesulfonamide] had an IC50 of 12 nM.
